Experimental data published in patent US8895474B2, “Herbicidally active cyclopentanediones and derivatives thereof, and their use in controlling weeds” (Syngenta Limited, priority 2009, dated 2014).

How the values were obtained:
Type in all cases: in vivo
Conditions in all cases: 312 h, rate 250 g/ha, evaluated after 13 days, 100=total damage to plant, 0=no damage to plant
[1] = system: Alopecurus myosuroides (ALOMY); assay: Pre-emergence herbicidal activity, glasshouse pot test
Description: (§1) Seeds of a variety of test species were sown in standard soil in pots. After cultivation for one day (pre-emergence) or after 8 days cultivation (post-emergence) under controlled conditions in a glasshouse (at 24/16° C., day/night; 14 hours light; 65% humidity), the plants were sprayed with an aqueous spray solution derived from the formulation of the technical active ingredient in acetone/water (50:50) solution containing 0.5% Tween 20 (polyoxyethelyene sorbitan monolaurate, CAS RN 9005-64-5). The test plants were then grown in a glasshouse under controlled conditions in a glasshouse (at 24/16° C., day/night; 14 hours light; 65% humidity) and watered twice daily. After 13 days for pre and post-emergence, the test was evaluated (100=total damage to plant; 0=no damage to plant). Test Plants: Lolium perenne (LOLPE), Alopecurus myosuroides (ALOMY), Echinochloa crus-galli (ECHCG), and Avena fatua (AVEFA). Pre-Emergence Activity

Avena fatua (AVEFA) [2] = assay: as above
Description: as §1

[3] = system: Echinochloa crus-galli (ECHCG); assay: as above
Description: as §1

Lolium perenne (LOLPE) [4] = assay: as above
Description: as §1

[5] = system: Alopecurus myosuroides (ALOMY); assay: Post-emergence herbicidal activity, glasshouse pot test
Description: as §1, with “Post-Emergence” for “Pre-Emergence”

Avena fatua (AVEFA) [6] = assay: as above
Description: as §1, with “Post-Emergence” for “Pre-Emergence”

[7] = system: Echinochloa crus-galli (ECHCG); assay: as above
Description: as §1, with “Post-Emergence” for “Pre-Emergence”

Lolium perenne (LOLPE) [8] = assay: as above
Description: as §1, with “Post-Emergence” for “Pre-Emergence”

Row | SMILES | pest or weed control at 250 g/ha [1] [%] | pest or weed control at 250 g/ha (Avena fatua (AVEFA) [2]) [%] | pest or weed control at 250 g/ha [3] [%] | pest or weed control at 250 g/ha (Lolium perenne (LOLPE) [4]) [%] | pest or weed control at 250 g/ha [5] [%] | pest or weed control at 250 g/ha (Avena fatua (AVEFA) [6]) [%] | pest or weed control at 250 g/ha [7] [%] | pest or weed control at 250 g/ha (Lolium perenne (LOLPE) [8]) [%]
1 | CCc1ccc(Oc2ccc(Br)cc2Cl)cc1C1=C(O)[C@H]2[C@H]3CC[C@H](C3)[C@H]2C1=O [Compound A-20] | 50 | 10 | 60 | 50 | 30 | 0 | 70 | 20
2 | CCc1ccc(Oc2ccc(Cl)cc2Cl)cc1C1=C(O)[C@H]2[C@H]3CC[C@H](C3)[C@H]2C1=O [Compound A-21] | 20 | 0 | 40 | 30 | 40 | 0 | 70 | 20
3 | CCc1ccc(Oc2ccc(Br)cc2)cc1C1=C(O)[C@H]2[C@H]3CC[C@H](C3)[C@H]2C1=O [Compound A-22] | 40 | 30 | 90 | 80 | 50 | 80 | 100 | 40
4 | CCc1ccc(Oc2ccc(F)cc2)cc1C1=C(O)[C@H]2[C@H]3CC[C@H](C3)[C@H]2C1=O [Compound A-23] | 0 | 0 | 80 | 30 | 50 | 0 | 60 | 20
5 | CCc1ccc(Oc2ccc(Cl)cc2)cc1C1=C(O)[C@H]2[C@H]3CC[C@H](C3)[C@H]2C1=O [Compound A-24] | 10 | 30 | 50 | 40 | 60 | 70 | 100 | 60
6 | CCc1ccc(Oc2ccc(Cl)cc2F)cc1C1=C(O)[C@H]2[C@H]3CC[C@H](C3)[C@H]2C1=O [Compound A-25] | 20 | 30 | 70 | 70 | 50 | 40 | 90 | 60
7 | CCc1ccc(Oc2ccc(Cl)c(F)c2)cc1C1=C(O)[C@H]2[C@H]3CC[C@H](C3)[C@H]2C1=O [Compound A-26] | 0 | 0 | 80 | 20 | 60 | 80 | 80 | 30
8 | CCc1ccc(Oc2ccc(Br)cc2F)cc1C1=C(O)[C@H]2[C@H]3CC[C@H](C3)[C@H]2C1=O [Compound A-27] | 20 | 0 | 60 | 40 | 60 | 70 | 80 | 80
9 | CCc1ccc(Oc2ccc(Br)cc2Cl)cc1C1=C(O)C2C(C1=O)[C@H]1CC[C@@H]2CC1 (stereo partly drawn) [Compound A-28] | 0 | 0 | 20 | 0 | 0 | 0 | 80 | 0
10 | CCc1ccc(Oc2ccc(Cl)cc2Cl)cc1C1=C(O)C2C(C1=O)[C@H]1CC[C@@H]2CC1 (stereo partly drawn) [Compound A-29] | 0 | 0 | 50 | 0 | 60 | 0 | 100 | 0
11 | CCc1ccc(Oc2ccc(F)cc2)cc1C1=C(O)C2C(C1=O)[C@H]1CC[C@@H]2CC1 (stereo partly drawn) [Compound A-30] | 30 | 20 | 80 | 70 | 60 | 20 | 100 | 10
12 | CCc1ccc(Oc2ccc(Cl)cc2)cc1C1=C(O)C2C(C1=O)[C@H]1CC[C@@H]2CC1 (stereo partly drawn) [Compound A-31] | 20 | 0 | 90 | 50 | 100 | 80 | 100 | 40
13 | CCc1ccc(Oc2ccc(Cl)cc2F)cc1C1=C(O)C2C(C1=O)[C@H]1CC[C@@H]2CC1 (stereo partly drawn) [Compound A-32] | 0 | 0 | 60 | 40 | 90 | 90 | 100 | 30
14 | CCc1ccc(Oc2ccc(Cl)c(F)c2)cc1C1=C(O)C2C(C1=O)[C@H]1CC[C@@H]2CC1 (stereo partly drawn) [Compound A-33] | 20 | 0 | 50 | 50 | 90 | 90 | 100 | 0
15 | CCc1ccc(Oc2ccc(Br)cc2F)cc1C1=C(O)C2C(C1=O)[C@H]1CC[C@@H]2CC1 (stereo partly drawn) [Compound A-34] | 20 | 30 | 70 | 50 | 80 | 90 | 90 | 40
16 | CCc1ccc(Oc2ccc(Br)cc2Cl)cc1C1=C(O)CCC1=O [Compound A-35] | 30 | 10 | 20 | 60 | 10 | 20 | 30 | 20
17 | CCc1ccc(Oc2ccc(Br)cc2)cc1C1=C(O)CCC1=O [Compound A-37] | 10 | 0 | 20 | 10 | 20 | 20 | 80 | 30
18 | CCc1ccc(Oc2ccc(Cl)cc2)cc1C1=C(O)CCC1=O [Compound A-39] | 20 | 30 | 40 | 0 | 10 | 0 | 60 | 10
19 | CCc1ccc(Oc2ccc(Cl)cc2F)cc1C1=C(O)CCC1=O [Compound A-40] | 0 | 0 | 40 | 10 | 10 | 10 | 30 | 10
20 | CCc1ccc(Oc2ccc(Cl)c(F)c2)cc1C1=C(O)CCC1=O [Compound A-41] | 0 | 0 | 30 | 0 | 0 | 10 | 70 | 20
21 | CCc1ccc(Oc2ccc(Br)cc2F)cc1C1=C(O)CCC1=O [Compound A-42] | 0 | 0 | 30 | 0 | 0 | 0 | 70 | 10
